Experimental data from publication PMC6891695, “Evaluation of Antifouling Potential and Ecotoxicity of Secondary Metabolites Derived from Red Algae of the Genus Laurencia” (Marine Drugs, 2019).

Tested on: A. salina nauplii
Experiment: Artemia salina toxicity assay
Type: in vivo
Details: 24 and 48 h
Method: The short-term toxicity assay with A. salina nauplii was used to determine the toxicity of secondary metabolites. Hatching of A. salina nauplii was carried out in ASW (35‰) using 0.5 g of cysts incubated in 500 mL seawater at a temperature of 25 ± 1 °C and lateral illumination (1000 Lux). All cysts were kept in continuous suspension with aeration and 24 h later hatched larvae (instar I) were harvested. Toxicity assays were carried out in three independent experiments in 24-well plates with four replicates of each tested concentration. Ten nauplii per well were transferred with a Pasteur pipette into the 24-well plates and each well was filled with 2 mL of ASW and 50 μL of various concentrations of the tested compounds in methanol. Control treatments received 50 μL of methanol. Plates were incubated in the dark at 25 ± 1 °C for 48 h. Mortality was assessed by recording the number of individuals with no movement of their appendages within 10 seconds and is expressed as the percentage of the total number of assessed individuals for each concentration.
For EC50 or IC50 (the concentration that results in 50% stimulation or inhibition relative to the control) calculations in GraphPad Prism v.6, all data were fitted to the curve according to the following models for normalized response: Y = 100/(1 + 10^((X − LogIC50))) or Y = 100/(1 + 10^((LogEC50 − X))) depending on the trend of the curve.

In the case of `CC(C)[C@@H]1CC=C[C@H]2[C@H]3[C@](C)(CC[C@]12CBr)[C@@H](Br)CC[C@@]3(C)O` [Bromosphaerol, reference compound], the “toxicity against A. salina nauplii (in words)” value is reported as “did not show any toxicity”.
